Experimental data: patent US11008340B2, “Modulators of ROR-gamma” (Vitae Pharmaceuticals, LLC, priority 2015, dated 2021)
pKi: −log10 of the molar value.

Target: T1, recombinant RORγ Ligand Binding Domain (LBD) protein (Homo sapiens, UniProt P51449)
T1 construct: 6×His; GST
T1 sequence (P51449 269-508 limits assumed): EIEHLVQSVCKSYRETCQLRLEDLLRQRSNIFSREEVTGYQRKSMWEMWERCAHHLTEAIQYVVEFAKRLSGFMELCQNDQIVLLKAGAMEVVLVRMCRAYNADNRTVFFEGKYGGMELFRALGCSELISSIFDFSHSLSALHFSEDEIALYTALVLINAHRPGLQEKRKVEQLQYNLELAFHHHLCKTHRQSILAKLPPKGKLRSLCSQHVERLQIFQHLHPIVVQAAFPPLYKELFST
Assay: Radio-Ligand RORγ Binding Assay (Assay 1)
Details: radio-ligand competition, 25-hydroxy [26,27-3H]-cholesterol, RORγ LBD; read-out: Avg ROR Bind Ki
Experimental: Radio-Ligand RORγ Binding Assay (Assay 1)
Compounds described herein were tested for ability to bind to RORγ in a cell-free competition assay with commercially available radio-ligand (RL), 25-hydroxy [26,27-^3H]-cholesterol (PerkinElmer, Cat. #NET674250UC), for a ligand binding site on a recombinant RORγ Ligand Binding Domain (LBD) protein expressed as a 6×His-Glutathione-S-Transferase (GST) fusion. The assay was performed in 96-well SPA plates (PerkinElmer, Cat. #1450-401) in 50 mM HEPES buffer, pH 7.4, containing 150 mM NaCl, 5 mM MgCl2, 10% (v/v) glycerol, 2 mM CHAPS, 0.5 mM 3-octylglucopyranoside and 5 mM DTT. Tested compounds were dissolved in DMSO, and semi-log (3.162×) serial dilutions of the compounds were prepared in the same solvent. Two μL of the DMSO solutions were mixed with 28 μL of 8.6 nM 25-hydroxy [26,27-^3H]-cholesterol and 50 μL of 24 nM RORγ LBD. The plate was shaken at 700 rpm for 20 min and incubated for 10 min at rt, after which 40 μL of poly-Lys YSi SPA beads (PerkinElmer, Cat. #RPNQ0010) were added to achieve 50 μg of the beads per well. The plate was incubated on an orbital shaker for 20 min and then for 10 min without agitation at rt. SPA signal for tritium beta radiation was registered on PerkinElmer Microbeta plate reader. […] The percent inhibition vs. concentration data were fit into a four-parameter model, and IC50 values were calculated from the fit as the concentrations corresponding to the inflection points on the dose-response curves. Inhibitory constants (Ki) were calculated using the following equation, where [RL] is the concentration in the assay and KD is a dissociation constant of 25-hydroxy [26,27-^3H]-cholesterol: […]

pKi | Structure (SMILES)
> 7.00 | CCS(=O)(=O)c1ccc([C@H](CO)NC(=O)c2cnc3c(C4CC4)n(C[C@H]4CC[C@H](C(F)(F)F)CC4)nc3c2)nc1 [Hy3B-4, 3-cyclopropyl-N-((R)-1-(5-(ethylsulfonyl)pyridin-2-yl)-2-hydroxyethyl)-2-(((1r,4R)-4-(trifluoromethyl)cyclohexyl)methyl)-2H-pyrazolo[4,3-b]pyridine-6-carboxamide]
6.00 to 7.00 | CCS(=O)(=O)c1ccc(CNC(=O)c2ccc3c(c2)CCN(c2ncc(C#N)cn2)[C@H]3C(C)C)cc1 (single isomer, unassigned) [Hy2A-1.2]
6.00 to 7.00 | CCS(=O)(=O)c1ccc(CNC(=O)c2cn(C)c3c(Oc4ccc(C(F)(F)F)cc4)nccc23)cc1 [Hy5-1, N-(4-(ethylsulfonyl)benzyl)-1-methyl-7-(4-(trifluoromethyl)phenoxy)-1H-pyrrolo[2,3-c]pyridine-3-carboxamide]
< 6.00 | CCS(=O)(=O)c1ccc(CNC(=O)c2ccc3c(c2)CCN(Cc2ncc(C)cn2)[C@@H]3C(C)C)cc1 (single isomer, unassigned) [Hy2A-12.2]
6.00 to 7.00 | CCS(=O)(=O)c1ccc(CNC(=O)c2ccc3c(Oc4ccc(C(F)(F)F)cc4)nccc3c2)cc1 [Hy1A-2, N-(4-(ethylsulfonyl)benzyl)-1-(4-(trifluoromethyl)phenoxy)isoquinoline-6-carboxamide]
< 6.00 | CCS(=O)(=O)c1ccc(CNC(=O)c2ccc3c(c2)CN(c2ncc(-c4ccn(C)c(=O)c4)cn2)C[C@@H]3C(C)C)cc1 (single isomer, unassigned) [Hy7-25.2]
< 6.00 | CCS(=O)(=O)c1ccc(CNC(=O)c2ccc3c(c2)CN(c2ncc(-c4ccc(=O)n(C)c4)cn2)C[C@@H]3C(C)C)cc1 (single isomer, unassigned) [Hy7-24.2]
6.00 to 7.00 | CCS(=O)(=O)c1ccc(CNC(=O)c2ccc3c(c2)CCN(Cc2ccc(C#N)cn2)[C@@H]3C(C)C)cc1 (single isomer, unassigned) [Hy2A-16.2]
> 7.00 | CCS(=O)(=O)c1ccc(CNC(=O)c2ccc3c(c2)CN(c2ncc(C(F)(F)F)cn2)C[C@@H]3C(C)C)cc1 (single isomer, unassigned) [Hy7-15.2]
6.00 to 7.00 | CC[C@H]1CN(C2CCC(F)(F)CC2)Cc2cc(C(=O)N[C@@H](CO)c3ccc(S(=O)(=O)CC)cc3)ccc21 (single isomer, unassigned) [Hy7-32.2]
6.00 to 7.00 | CCS(=O)(=O)c1ccc(CNC(=O)c2ccc3c(c2)C(C)(C)CN(Cc2cnc(C)cn2)[C@@H]3C(C)C)cc1 (single isomer, unassigned) [Hy2A-22.2]
6.00 to 7.00 | CCS(=O)(=O)c1ccc(CNC(=O)c2ccc3c(c2)CN(c2ncc(N4CCOCC4)cn2)C[C@H]3C(C)C)cc1 (single isomer, unassigned) [Hy7-19.1]
< 6.00 | CC1c2ccc(C(=O)NCc3ccc(S(C)(=O)=O)cc3)cc2CCN1Cc1ccc(F)cc1 (racemic) [Hy2A-6, 2-(4-fluorobenzyl)-1-methyl-N-(4-(methylsulfonyl)benzyl)-1,2,3,4-tetrahydroisoquinoline-6-carboxamide]
6.00 to 7.00 | CCS(=O)(=O)c1ccc(CNC(=O)c2cnc3c(C4CC4)n(C[C@H]4CC[C@H](C(F)(F)F)CC4)nc3c2)nc1 [Hy3B-3, 3-cyclopropyl-N-((5-(ethylsulfonyl)pyridin-2-yl)methyl)-2-(((1r,4r)-4-(trifluoromethyl)cyclohexyl)methyl)-2H-pyrazolo[4,3-b]pyridine-6-carboxamide]
> 7.00 | CC[C@H]1CN(c2ncc(C(F)(F)F)cc2C#N)Cc2cc(C(=O)N[C@@H](CO)c3ccc(S(=O)(=O)CC)cc3)ccc21 (single isomer, unassigned) [Hy7-37.2]
6.00 to 7.00 | CC[C@H]1CN(c2ncc(-c3cccc(OC)n3)cn2)Cc2cc(C(=O)NCc3ccc(S(=O)(=O)CC)cc3)ccc21 (single isomer, unassigned) [Hy7-20.2]
< 6.00 | CC1c2ccc(C(=O)NCc3ccc(S(C)(=O)=O)cc3)cc2CCN1Cc1ccc(C#N)cc1 (racemic) [Hy2A-7, 2-(4-cyanobenzyl)-1-methyl-N-(4-(methylsulfonyl)benzyl)-1,2,3,4-tetrahydroisoquinoline-6-carboxamide]
6.00 to 7.00 | CCS(=O)(=O)c1ccc(CNC(=O)c2cn(C)c3c(OC[C@H]4CC[C@H](C(F)(F)F)CC4)nccc23)cc1 [Hy5-4, N-(4-(ethylsulfonyl)benzyl)-1-methyl-7-(((1r,4r)-4-(trifluoromethyl)cyclohexyl)methoxy)-1H-pyrrolo[2,3-c]pyridine-3-carboxamide]
6.00 to 7.00 | CCS(=O)(=O)c1ccc(CNC(=O)c2cnc3c(c2)CN(c2ncc(C(F)(F)F)cn2)CC3(C)C)cc1 [Hy7B-1, N-(4-(ethylsulfonyl)benzyl)-8,8-dimethyl-6-(5-(trifluoromethyl)pyrimidin-2-yl)-5,6,7,8-tetrahydro-1,6-naphthyridine-3-carboxamide]
< 6.00 | CCS(=O)(=O)c1ccc(CNC(=O)c2ccc3c(c2)CN(c2ncc(-c4ccc(=O)[nH]c4)cn2)C[C@@H]3C(C)C)cc1 (single isomer, unassigned) [Hy7-21.2]
6.00 to 7.00 | CCOC(=O)c1cnc(N2CCc3cc(C(=O)NCc4ccc(S(=O)(=O)CC)cc4)ccc3[C@@H]2C(C)C)nc1 (single isomer, unassigned) [Hy2A-4.1]
6.00 to 7.00 | CCS(=O)(=O)c1ccc(CNC(=O)c2ccc3c(OC[C@H]4CC[C@H](C(F)(F)F)CC4)cc(C)nc3c2)cc1 [Hy1B-2, N-(4-(ethylsulfonyl)benzyl)-2-methyl-4-(((1r,4r)-4-(trifluoromethyl)cyclohexyl)methoxy)quinoline-7-carboxamide]

Same assay, conditions: radio-ligand competition, RORγ LBD; head without unit (Tables 15, 17); read-out: Avg ROR Bind Ki

pKi | Structure (SMILES)
< 6.00 | CCS(=O)(=O)c1ccc(CNC(=O)c2cnc3c(c2)CCN(c2ncc(C#N)cn2)[C@@H]3C(C)C)cc1 (single isomer, unassigned) [Hy2B-1.2]
6.00 to 7.00 | CCS(=O)(=O)c1ccc(CNC(=O)c2cnc3c(c2)CCN(c2ncc(C(F)(F)F)cn2)[C@@H]3C(C)C)cc1 (single isomer, unassigned) [Hy2B-3.2]
6.00 to 7.00 | CCS(=O)(=O)c1ccc(CNC(=O)c2cnc3c(c2)CCN(Cc2ccc(F)cc2)C3C(C)C)cc1 (single isomer, unassigned) [Hy2B-6.2]
6.00 to 7.00 | CCS(=O)(=O)c1ccc(CNC(=O)c2cnc3c(c2)CCN(c2ncc(C(F)(F)F)cn2)[C@H]3C(C)C)cc1 (single isomer, unassigned) [Hy2B-3.1]
< 6.00 | CCS(=O)(=O)c1ccc(CNC(=O)c2cnc3c(c2)CCN(c2ncc(Cl)cn2)[C@@H]3C(C)C)cc1 (single isomer, unassigned) [Hy2B-2.2]
6.00 to 7.00 | CCS(=O)(=O)c1ccc(CNC(=O)c2cnc3c(c2)CCN(Cc2ccc(Cl)cc2)C3C(C)C)cc1 (single isomer, unassigned) [Hy2B-8.2]
